The source of these data is patent US10123954B1, “Methods for treating skin” (AVON PRODUCTS, INC., priority 2015, dated 2018).

“Also recorded” adds a separate entry of the source.

Holding throughout (assay type): cell-based
For test [1], the system named is human dermal fibroblast (HDF) cells. The test is described as follows: Hyaluronic Acid (HA) assessment in human dermal fibroblasts. The settings on record: 10 consecutive days, n=6, change over emulsion control, retinol 1 μM; for A alone (% change in HA): active A of Table 3 alone, Tiliacora triandra 0.10%, glycolic acid 1 mM, KTFK 0.001%, sodium glycolate 10 μM; for B alone (% change in HA): active B of Table 3 alone, niacinamide 0.1%, Coleus forskohlii 0.001%, Tiliacora triandra 0.1%, Tetrapeptide 4 0.10%, phytol 0.010%. As to the method: A series of experiments was conducted to assess the effects of the treatment regimens of active ingredients on the production of hyaluronic acid (HA) in human dermal fibroblast (HDF) cells. The following five treatment regimens were assessed: (1) active ingredient A, alone; (2) active ingredient B, alone; (3) the combination of active ingredients A+B; (4) active ingredient A, alone, followed by active ingredient B, alone (“A/B”); and (5) active ingredient B, alone, followed by active ingredient A, alone (“B/A”). For treatment regimens (1), (2), and (3), the active ingredients were administered to cells for 10 consecutive days. For treatment regimens (4) and (5) (sequential regimens), the cells were treated with active ingredient A or active ingredient B for 5 days, followed by active ingredient B or active ingredient A for 5 days, respectively.
Human dermal fibroblast cells were grown in 96-well plates in DMEM media (available from CORNING, N.Y.) supplemented with 10% FBS and L-glutamine. After reaching about 75% confluence, cells were transferred into DMEM media without FBS, and incubated for 4-6 hours. Different wells were assigned to one of treatment regimens (1)-(5) as described above, with six wells allocated to each treatment regimen (i.e., n=6). All active ingredients were prepared as emulsions and applied directly to the HDF cells. The specific active ingredients used in each of the five treatment regimens are provided below in Table 3. Following treatment, cells were collected and the amount of hyaluronic acid (HA) secreted from the cells was measured using a commercially available HA assay (available from CORGENIX Inc., CO).
The results are summarized below in Table 4 and plotted in FIGS. 13-17 as a percentage change over control (i.e. cells treated with the same emulsion but in absence of active ingredients).

Test [2] has as its system Human 3D skin EFT400FT tissues. The test is described as follows: HA in full thickness 3D skin models. As to conditions: 4 consecutive days, n=12; 4% glycolic acid topically or 0.2% Tiliacora triandra via growth media. As to the method:
A series of experiments was conducted to assess the effects of the treatment regimens of glycolic acid and Tiliacora triandra on the production of hyaluronic acid (HA) on full thickness 3D skin cultures. Five different treatment regimens were assessed: (1) 4% glycolic acid, alone; (2) 0.2% Tiliacora triandra, alone; (3) the combination of 4% glycolic acid+0.2% Tiliacora triandra; (4) 4% glycolic acid, alone, followed by 0.2% Tiliacora triandra, alone; and (5) 0.2% Tiliacora triandra, alone, followed by 4% glycolic acid, alone. Glycolic acid was administered topically to the 3D tissue and Tiliacora triandra was administered via the growth media. For treatment regimens (1), (2), and (3), the active ingredient or ingredients were applied to cells for 4 consecutive days. For treatment regimens (4) and (5) (sequential regimens), the cells were treated with glycolic acid or Tiliacora triandra for 2 days, followed by Tiliacora triandra or glycolic acid for 2 days, respectively.
Human 3D skin EFT400FT tissues (MatTek, Mass.) were cultured following the manufacturer's instructions. Each treatment regimen was applied to twelve 3D skin samples. […] Following treatment, cells were collected and the amount of hyaluronic acid secreted from the cells was measured using a commercially available HA assay (available from CORGENIX Inc., CO). […]

The subject of test [3] is human dermal fibroblast (HDF) cells. Kind of test: Hyaluronic acid in human dermal fibroblasts, pulsed versus daily treatment. As to conditions: for % Change in HA over control (daily): 12 consecutive days; for % Change in HA over control (daily) / % Change in HA over control (pulsed): Tiliacora triandra 0.05%, niacinamide 0.10%, glycolic acid 1 mM, retinol 1 μM, phytol 0.01%; for % Change in HA over control (pulsed): 2 days active / 2 days media without active, repeated over 12 days; for HA production, pulsed treatment compared with daily treatment: pulsed uses half as much active over 12 days. As to the method:
After reaching about 75% confluence, cells were transferred into DMEM media without FBS, and incubated for 4-6 hours. Different wells were assigned to one of treatment regimens (1)-(2) as described above, with six wells allocated to each treatment regimen. All active ingredients were prepared as emulsions and applied directly to the HDF cells. […] Following treatment, cells were collected and the amount of hyaluronic acid (HA) secreted from the cells was measured using a commercially available HA assay (available from […] Inc., CO).

Test [4] has as its system Human 3D MelanoDerm MEL-B skin tissues. The test is described as follows: Melanin in 3D skin models (SOLVABLE melanin assay). As to conditions: 14 consecutive days, n=6, change from control, niacinamide 0.1%; for B (% change in pigmentation): active B of Table 8 alone, hexylresorcinol 0.05%; for A (% change in pigmentation): active A of Table 8 alone, TDPA 1%. As to the method:
A series of experiments was conducted to assess the effects of treatment regimens of active ingredients shown in Table 8 on the production of melanin in 3D models. Four different treatment regimens were assessed: (1) active ingredient A, alone; (2) active ingredient B, alone; (3) the combination of active ingredients A+B; and (4) active ingredient A, alone, followed by active ingredient B, alone, as detailed in Table 8. For treatment regimens (1), (2), and (3), the active ingredients were applied to cells for 14 consecutive days. For treatment regimen (4) (sequential regimen), the cells were treated with active ingredient A for 7 days, followed by treatment with the other active ingredient B for 7 days.
Human 3D MelanoDerm MEL-B skin tissues (available from MatTek, Mass.) were cultured following the manufacture instructions. Different skin tissue models were assigned to one of treatment regimens (1)-(4) as described above, with six models allocated to each treatment regimen (i.e., n=6). All active ingredients were prepared as emulsions and applied directly to the skin models. Following treatment, skin tissue models were collected and the amount of melanin produced from the cells was measured using a SOLVABLE melanin assay. Treated skin tissues were prepared using a phosphate buffer saline and sodium bicarbonate. Each skin tissue is added to 500 μl of 0.5 M SOLVABLE solubilizer (available from Packard BioScience) and incubated at 95° overnight. The absorbance of each skin tissue sample is measured at 490 nm and the absorbance is compared to a standard curve to indicate the amount of melanin produced and pigmentation in each skin tissue model.
The results for treatments measuring the melanin content produced are shown in Table 9 as a percentage change from control (i.e., untreated samples or samples treated with the same emulsion but in absence of active ingredients).

Test [5] deals with Human dermal fibroblast cells. The test is described as follows: Pro-collagen I secretion by human dermal fibroblasts (HTRF human pro-collagen I kit). The settings on record: 0.0001% phytol or 1 μM retinol alone for 16 days, re-treated every other day. As to the method: Human dermal fibroblast cells were grown in a 6-well plate in DMEM media (available from Corning, N.Y.) supplemented with 10% Fetal Bovine Serum (FBS) and L-glutamine (1.5×10^5 cells/plate) overnight. After reaching about 75% confluence, cells were transferred into DMEM media without FBS and incubated for 4-6 hours. Next, the cells were treated with either 0.0001% phytol or 1 μM retinol. Treatment with either phytol alone, or retinol alone was performed in DMEM media without FBS for 16 days. For sequential treatments, the cells were treated with 0.0001% phytol for 6 days followed by 1 μM retinol for 10 days, or with 1 μM retinol for 6 days, followed by 0.0001% phytol for 10 days. Every other day, media were collected and cells were re-treated with phytol or retinol in the same fashion. After treatment, the amount of collagen secreted into the culture media was determined using the HTRF human pro-collagen I kit (available from CISBIO, Inc).

In test [6] the test system is human dermal fibroblast (HDF) cells. The test is described as follows: Pro-collagen type I assessment in human dermal fibroblasts (ELISA). As to conditions: 10 consecutive days, change from emulsion control, retinol 1 μM; for A alone (% change in pro-collagen): active A of Table 6 alone, phytol 0.0001%. As to the method:
A series of experiments was conducted to assess the effects of the treatment regimens of active ingredients shown in Table 6 on the production of pro-collagen type I in human dermal fibroblast (HDF) cells. Five different treatment regimens were assessed: (1) active ingredient A, alone; […] (3) the combination of active ingredients A+B; […] For treatment regimens (1), (2), and (3), the active ingredients were applied to cells for 10 consecutive days. […] After reaching about 75% confluence, cells were transferred into DMEM media without FBS, and incubated for 4-6 hours. Different wells were assigned to one of treatment regimens (1)-(5) as described above, with six wells allocated to each treatment regimen. All active ingredients were prepared as emulsions and applied directly to the HDF cells. The specific active ingredients used in each of the five treatment regimens are provided below in Table 6. Following treatment, measurements on the amount of pro-collagen produced from the cells were performed using a commercially available pro-collagen type I enzyme-linked immuno sorbent assay (ELISA) kit (available from TAKARA Inc., KR). [table]

In the case of `O=C(O)CO` [Glycolic Acid], the “A alone (% change in HA)” value in test [1] is listed as 20.8%. Moreover, the “percentage change in HA over control, active alone” value in test [2] came out at 42.6%. Moreover, in test [3], the “% Change in HA over control (daily)” value came to 9.1%; the “% Change in HA over control (pulsed)” value was determined as 5.1%; the “HA production, pulsed treatment compared with daily treatment” value is given as “only slightly less effective than daily treatment”.
In the case of `CCCCCCc1ccc(O)cc1O` [Hexylresorcinol], the “B (% change in pigmentation)” value in test [4] is 140.4%.
With `NC(=O)c1cccnc1` [Niacinamide], the “B alone (% change in HA)” value in test [1] was −51.6%. In test [4], the “A (% change in pigmentation)” value was −18.9% and the “B (% change in pigmentation)” value is on record as −18.9%. For the same molecule, in test [3], the “% Change in HA over control (daily)” value was −36.5% and the “% Change in HA over control (pulsed)” value came out at 1.3%.
As to `C/C(=C\CO)CCC[C@H](C)CCC[C@H](C)CCCC(C)C` [Phytol], the “pro-collagen production over treatment time” value in test [5] is “declines for both phytol- and retinol-treated cells after day 13 despite continuing treatment; also recorded: plateau in effectiveness over time”. Besides, in test [1], the “B alone (% change in HA)” value was 67.7%. Besides, in test [6], the “A alone (% change in pro-collagen)” value came to 19.1%. In test [3], the “% Change in HA over control (daily)” value is −4.0%; the “% Change in HA over control (pulsed)” value was determined as 25.1%; the “HA production, pulsed treatment compared with daily treatment” value is given as “significantly more production of hyaluronic acid than in daily treatment regimens”.
On to `CC1=C(/C=C/C(C)=C/C=C/C(C)=C/CO)C(C)(C)CCC1` [Retinol], for which the “pro-collagen production over treatment time” value in test [5] is “declines for both phytol- and retinol-treated cells after day 13 despite continuing treatment; also recorded: plateau in effectiveness over time”. Further, in test [1], the “A alone (% change in HA)” value came out at 11.7% and the “B alone (% change in HA)” value amounted to 11.7%. Besides, the “A alone (% change in pro-collagen)” value in test [6] came out at 13.6%. Further, the “B alone (% change in pro-collagen)” value in test [6] (active B of Table 6 alone, Coleus forskohlii 0.001%) turned out to be 3.9%. Also, in test [3], the “% Change in HA over control (daily)” value came out at 17.2%; the “% Change in HA over control (pulsed)” value is 32.0%; the “HA production, pulsed treatment compared with daily treatment” value is “significantly more production of hyaluronic acid than in daily treatment regimens”.
`O=C([O-])CO.[Na+]` [Sodium Glycolate]: the “A alone (% change in HA)” value in test [1] was −2.54%.
With `O=C(O)CCSCCC(=O)O` [TDPA, thiodipropionic acid], the “A (% change in pigmentation)” value in test [4] was −19.1%.
Take “Lys-Thr-Phe-Lys (KTFK; printed: Lys-Thr-Phe-Lys)”: the “A alone (% change in HA)” value in test [1] is 23.7%.
As for Tetrapeptide-4 [Tetrapeptide 4], the “B alone (% change in HA)” value in test [1] worked out at 15.1%.
